Measurements reported in the supplement of paper PMC10307832.

Legend:
Experiment in all cases: relative viability (nuclei count vs DMSO), 5 days (fraction); higher = more cells survive
[1] = compound: Cc1cc([C@@H](C)Nc2ccccc2C(=O)O)c2nc(N3CCOCC3)cc(=O)n2c1 [AZD6482] + CC(=O)Nc1cccc(-n2c(=O)n(C3CC3)c(=O)c3c(Nc4ccc(I)cc4F)n(C)c(=O)c(C)c32)c1 [Trametinib] (partner 0.02 µM)
Method in brief: (§1)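 Cells from lung cancer lines were seeded into 1536-well plates and, one day later, dosed by pin tool. Treatments were either a single drug or a fixed dose of an anchor drug with five library-drug doses (not always all listed) in √10 steps. After 5 days, nuclei were stained in a one-step fixation (final 0.05% Triton X-100, 1% formaldehyde, 1 ug/ml Hoechst) and counted on 4× images, and relative viability is the treated-to-vehicle nuclei ratio, as the median of duplicate plates.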

[2] = compound: Cc1cc([C@@H](C)Nc2ccccc2C(=O)O)c2nc(N3CCOCC3)cc(=O)n2c1 [AZD6482] + NC(=O)Nc1cc(-c2cccc(F)c2)sc1C(=O)N[C@H]1CCCNC1 [AZD7762] (partner 0.2 µM)
Method in brief: as §1

[3] = compound: COc1cc2nc(N3CCCN(C)CC3)nc(NC3CCN(Cc4ccccc4)CC3)c2cc1OC + Nc1ncn([C@H]2C[C@H](O)[C@@H](CO)O2)c(=O)n1 [Decitabine] (partner 2 µM)
Method in brief: as §1

[4] = compound: COc1cc2nc(N3CCCN(C)CC3)nc(NC3CCN(Cc4ccccc4)CC3)c2cc1OC + CS(=O)(=O)N1CCN(Cc2cc3nc(-c4cccc5[nH]ncc45)nc(N4CCOCC4)c3s2)CC1 [Pictilisib] (partner 1 µM)
Method in brief: as §1

| Cell Line | relative viability ([1]; first compound 0.08 µM) | relative viability ([1]; first compound 0.253 µM) | relative viability ([1]; first compound 0.8 µM) | relative viability ([1]; first compound 2.53 µM) | relative viability ([1]; first compound 8 µM) | relative viability ([2]; first compound 0.08 µM) | relative viability ([2]; first compound 0.253 µM) | relative viability ([2]; first compound 0.8 µM) | relative viability ([2]; first compound 2.53 µM) | relative viability ([2]; first compound 8 µM) | relative viability ([3]; first compound 0.2 µM) | relative viability ([3]; first compound 0.6325 µM) | relative viability ([3]; first compound 2 µM) | relative viability ([3]; first compound 6.325 µM) | relative viability ([4]; first compound 0.2 µM) | relative viability ([4]; first compound 0.6325 µM) | relative viability ([4]; first compound 2 µM) | relative viability ([4]; first compound 6.325 µM) |
| --- | --- | --- | --- | --- | --- | --- | --- | --- | --- | --- | --- | --- | --- | --- | --- | --- | --- | --- |
| HOP-62 | 0.247 | 0.342 | 0.242 | 0.262 | 0.232 | 0.577 | 0.626 | 0.706 | 0.526 | 0.761 | 0.214 | 0.201 | 0.198 | 0.216 | 0.586 | 0.688 | 0.555 | 0.496 |
| IA-LM | – | – | – | – | – | – | – | – | – | – | – | – | – | – | 0.342 | 0.389 | 0.419 | 0.322 |
| LC-2-ad | 0.864 | 0.886 | 0.942 | 0.798 | 0.614 | 0.842 | 0.774 | 0.821 | 0.662 | 0.593 | 0.764 | 0.741 | 0.734 | 0.856 | 0.481 | 0.467 | 0.534 | 0.473 |
| LCLC-97TM1 | 0.2 | 0.202 | 0.171 | – | 0.154 | 0.344 | 0.157 | 0.442 | – | 0.299 | 0.244 | 0.202 | 0.225 | 0.27 | 0.186 | – | 0.149 | 0.139 |
| LCLC-103H | 0.661 | 0.607 | 0.649 | 0.547 | 0.496 | 0.626 | 0.721 | 0.619 | 0.579 | 0.562 | 0.74 | 0.794 | 0.777 | 0.701 | 0.635 | 0.666 | 0.656 | 0.585 |
| LK-2 | 0.616 | 0.649 | 0.782 | 0.623 | 0.564 | 0.386 | 0.362 | 0.434 | 0.239 | 0.271 | 0.276 | 0.244 | 0.359 | 0.326 | 0.621 | 0.565 | 0.669 | 0.632 |
| LOU-NH91 | 0.752 | 0.8 | 0.757 | 0.603 | 0.623 | 0.695 | 0.69 | 0.704 | 0.519 | 0.543 | 0.779 | 0.845 | 0.853 | 0.808 | 0.546 | 0.585 | 0.505 | 0.566 |
| LU99A | 0.457 | 0.478 | 0.539 | 0.568 | 0.475 | 0.338 | 0.356 | 0.254 | 0.317 | 0.344 | 0.863 | 0.857 | 0.893 | 0.811 | 0.322 | 0.304 | 0.297 | 0.278 |
| NCI-H520 | 0.567 | 0.463 | 0.433 | 0.201 | 0.26 | – | – | – | – | – | 0.495 | 0.454 | 0.534 | 0.214 | 0.292 | 0.329 | 0.332 | 0.21 |
| NCI-H522 | 0.872 | 0.711 | 0.841 | 0.549 | 0.566 | 0.764 | 0.73 | 0.803 | 0.762 | 0.664 | 0.623 | 0.694 | 0.588 | 0.698 | – | – | – | – |
| NCI-H661 | 0.615 | 0.555 | 0.61 | 0.428 | 0.387 | – | – | – | – | – | 0.58 | 0.569 | 0.588 | 0.689 | 0.338 | 0.406 | 0.428 | 0.466 |
| NCI-H1299 | – | – | – | – | – | – | – | – | – | – | – | – | – | – | 0.734 | 0.777 | 1.05 | 0.649 |
| NCI-H1563 | – | – | – | – | – | – | – | – | – | – | – | – | – | – | 0.566 | 0.622 | 0.558 | 0.55 |
| NCI-H1648 | 0.483 | 0.434 | 0.491 | – | 0.365 | 0.708 | 0.674 | 0.872 | – | 0.6 | – | 0.472 | – | 0.507 | – | – | – | – |
| NCI-H1650 | 0.62 | 0.455 | 0.614 | 0.546 | 0.527 | – | – | – | – | – | 0.403 | 0.399 | 0.377 | 0.353 | 0.543 | 0.699 | 0.544 | 0.548 |
| NCI-H1703 | – | – | – | – | – | – | – | 0.333 | 0.131 | 0.149 | – | – | – | – | 0.25 | 0.225 | 0.266 | 0.16 |
| NCI-H2009 | 0.181 | 0.163 | 0.21 | 0.139 | 0.185 | – | – | – | – | – | 0.396 | 0.392 | 0.43 | 0.375 | 0.686 | 0.859 | 0.962 | 0.673 |
| NCI-H2023 | 0.455 | 0.52 | 0.547 | 0.28 | 0.389 | – | – | – | – | – | 0.226 | 0.218 | 0.25 | 0.114 | 0.204 | 0.279 | 0.211 | 0.0903 |
| NCI-H2228 | 0.342 | 0.579 | 0.457 | 0.484 | 0.494 | – | – | – | – | – | – | – | – | – | 0.385 | 0.256 | 0.405 | 0.175 |
| NCI-H2342 | 0.682 | 0.685 | 0.799 | 0.561 | 0.622 | 0.532 | 0.352 | 0.567 | 0.337 | 0.374 | 0.791 | 0.785 | 0.716 | 0.662 | – | – | – | – |
| SK-LU-1 | – | 0.418 | 0.495 | 0.399 | 0.453 | – | – | – | – | – | 0.644 | 0.706 | 0.703 | 0.618 | 0.702 | 0.604 | 0.559 | 0.401 |
| SK-MES-1 | 0.394 | 0.454 | 0.414 | 0.294 | 0.291 | – | – | – | – | – | 0.371 | 0.351 | 0.316 | 0.101 | 0.339 | 0.41 | 0.364 | 0.31 |
| SW 900 | 0.851 | 0.591 | 0.703 | 0.43 | 0.568 | 0.402 | 0.512 | 0.445 | 0.497 | 0.501 | 0.448 | 0.501 | 0.412 | 0.373 | – | – | – | – |
| SW 1573 | 0.466 | 0.508 | 0.526 | 0.336 | 0.307 | – | – | – | – | – | 0.542 | 0.48 | 0.402 | 0.182 | 0.478 | 0.539 | 0.537 | 0.325 |
